Source: patent publication US7326732B2, “EP2 receptor agonists” (Pharmagene Laboratories Limited, priority 2004, dated 2008)

Key:
human EP2 receptor = target: T1, human EP2 receptor (Homo sapiens, UniProt P43116); experiment: Binding ability to human EP receptors ([3H]PGE2 displacement), EP2; conditions: membranes expressing human EP2; [3H]PGE2 3 nM; Cheng-Prusoff; read-out: pKi (M) EP2 (converted)
T1 construct: expressed in transfected cells
Summary of the method: (§1)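 Membranes from cells stably expressing human EP2, EP3 or EP4 incubated to equilibrium with [3H]PGE2 and compound at 0.1 to 10 000 nM. Non-specific binding defined with 10 uM PGE2; bound label separated by vacuum filtration and quantified by scintillation counting.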

human EP4 receptor = target: T2, human EP4 receptor (Homo sapiens, UniProt P35408); experiment: Binding ability to human EP receptors ([3H]PGE2 displacement), EP4; conditions: membranes expressing human EP4; [3H]PGE2 1 nM; Cheng-Prusoff; read-out: pKi (M) EP4 (converted)
T2 construct: expressed in transfected cells
Summary of the method: as §1

human EP3 receptor = target: T3, human EP3 receptor (Homo sapiens, UniProt P43115); experiment: Binding ability to human EP receptors ([3H]PGE2 displacement), EP3; conditions: membranes expressing human EP3; [3H]PGE2 2.5 nM; Cheng-Prusoff; read-out: pKi (M) EP3 (converted)
T3 construct: expressed in transfected cells
T3 sequence (P43115 1-390): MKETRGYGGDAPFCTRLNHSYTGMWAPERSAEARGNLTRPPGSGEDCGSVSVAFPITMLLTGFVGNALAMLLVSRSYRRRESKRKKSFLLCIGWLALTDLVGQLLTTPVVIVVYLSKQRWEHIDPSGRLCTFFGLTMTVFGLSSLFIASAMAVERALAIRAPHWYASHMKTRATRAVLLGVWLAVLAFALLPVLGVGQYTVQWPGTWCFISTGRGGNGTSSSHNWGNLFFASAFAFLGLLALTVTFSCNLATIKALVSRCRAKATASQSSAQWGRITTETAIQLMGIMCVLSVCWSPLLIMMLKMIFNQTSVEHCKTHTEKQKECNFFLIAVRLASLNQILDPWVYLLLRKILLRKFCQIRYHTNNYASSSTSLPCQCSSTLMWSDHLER
Summary of the method: as §1

[1] = target: T4, human EP2 prostanoid receptors (Homo sapiens, UniProt P43116); experiment: Agonist activity at recombinant human EP2 prostanoid receptors (cAMP in HEK-293 clones); assay type: cell-based; conditions: for EC50: HEK-293 stably transfected with human EP2, cAMP accumulation, read-out: pEC50 EP2 (converted); for activity (EP2 part): functional classification at EP2
T4 construct: expressed in transfected cells; host or cells: HEK-293
T4 sequence (P43116 whole entry): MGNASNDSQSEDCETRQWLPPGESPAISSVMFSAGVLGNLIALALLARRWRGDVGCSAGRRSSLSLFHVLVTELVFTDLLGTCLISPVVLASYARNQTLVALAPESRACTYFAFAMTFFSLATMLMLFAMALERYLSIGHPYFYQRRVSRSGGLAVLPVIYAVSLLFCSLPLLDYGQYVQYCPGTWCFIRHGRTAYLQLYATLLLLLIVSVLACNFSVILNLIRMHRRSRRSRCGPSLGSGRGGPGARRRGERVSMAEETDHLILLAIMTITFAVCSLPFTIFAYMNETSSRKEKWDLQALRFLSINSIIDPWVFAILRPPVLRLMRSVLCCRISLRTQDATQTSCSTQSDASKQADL

T2 sequence (P35408 whole entry): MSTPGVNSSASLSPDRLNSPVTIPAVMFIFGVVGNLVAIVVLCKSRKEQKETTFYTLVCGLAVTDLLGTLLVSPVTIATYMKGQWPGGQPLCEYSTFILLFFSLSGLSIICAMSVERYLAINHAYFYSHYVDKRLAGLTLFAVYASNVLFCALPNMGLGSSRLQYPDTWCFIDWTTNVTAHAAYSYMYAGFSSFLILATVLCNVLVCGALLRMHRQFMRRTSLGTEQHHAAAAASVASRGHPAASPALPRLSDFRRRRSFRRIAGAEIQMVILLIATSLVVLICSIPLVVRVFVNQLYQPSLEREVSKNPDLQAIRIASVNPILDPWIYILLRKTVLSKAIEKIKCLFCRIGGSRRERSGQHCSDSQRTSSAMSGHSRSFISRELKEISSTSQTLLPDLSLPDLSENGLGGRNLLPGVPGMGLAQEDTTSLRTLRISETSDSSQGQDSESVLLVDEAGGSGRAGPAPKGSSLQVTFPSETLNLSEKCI
T1 sequence (P43116 whole entry): as the sequence (P43116 whole entry) above

Ki (human EP2 receptor) [M]	Ki (human EP4 receptor) [M]	Ki (human EP3 receptor) [M]	EC50 [1] [nM]	activity (EP2 part) [1]	Compound
< 1e-07	> 1e-05	> 1e-05	< 100	EP2 Agonist	O=C(O)CCc1cccc(NC(=O)c2cccc(-c3cccc(F)c3)n2)c1 [Compound 162, 3-(3-{[6-(3-Fluoro-phenyl)-pyridine-2-carbonyl]-amino}-phenyl)-propionic acid]
< 1e-07	> 1e-05	> 1e-05	< 100	EP2 Agonist	O=C(O)CCc1cccc(NC(=O)c2ccc(-c3cccc(F)c3)o2)c1 [Compound 163, 3-(3-{[5-(3-Fluoro-phenyl)-furan-2-carbonyl]-amino}-phenyl)-propionic acid]
< 1e-06	> 1e-05	> 1e-05	< 100	EP2 Agonist	O=C(O)CCc1cccc(NC(=O)c2cccc(-c3ccccc3)n2)c1 [Compound 164, 3-{3-[(6-Phenyl-pyridine-2-carbonyl)-amino]-phenyl}-propionic acid]
< 1e-07	> 1e-05	> 1e-05	< 100	EP2 Agonist	O=C(O)COc1cccc(NC(=O)c2cc(-c3ccccc3)ccc2F)c1 [Compound 165]
< 1e-07	> 1e-05	> 1e-05	< 100	EP2 Agonist	O=C(O)COc1cccc(NC(=O)c2ccc(-c3cccc(F)c3)o2)c1 [Compound 168, (3-{[5-(3-Fluoro-phenyl)-furan-2-carbonyl]-amino}-phenoxy)-acetic acid]
< 1e-07	> 1e-05	> 1e-05	< 100	EP2 Agonist	O=C(O)COc1cccc(NC(=O)c2cc(-c3cccc(F)c3)ccc2F)c1 [Compound 169, {3-[(4,3′-Difluoro-biphenyl-3-carbonyl)-amino]-phenoxy}-acetic acid]
< 1e-07	< 1e-06	> 1e-05	< 100	EP2 Agonist	O=C(O)COc1cccc(NC(=O)c2cccc(-c3cccc(F)c3)n2)c1 [Compound 170, (3-{[6-(3-Fluoro-phenyl)-pyridine-2-carbonyl]-amino}-phenoxy)-acetic acid]
< 1e-07	> 1e-05	> 1e-05	< 100	EP2 Agonist	O=C(O)COc1cccc(NC(=O)c2cc(-c3ccc(F)cc3)ccc2F)c1 [Compound 171, {3-[(4,4′-Difluoro-biphenyl-3-carbonyl)-amino]-phenoxy}-acetic acid]
< 1e-06	> 1e-05	> 1e-05	< 100	EP2 Agonist	O=C(Nc1cccc(OCc2nnn[nH]2)c1)c1ccc(-c2ccccc2)o1 [Compound 173, 5-Phenyl-furan-2-carboxylic acid [3-(1H-tetrazol-5-ylmethoxy)-phenyl]-amide]
< 1e-06	> 1e-05	> 1e-05	< 1000	EP2 Agonist	O=C(Nc1cccc(-c2nnn[nH]2)c1)c1ccc(-c2ccccc2)o1 [Compound 177, 5-Phenyl-furan-2-carboxylic acid [3-(1H-tetrazol-5-yl)-phenyl]-amide]

More lines, now with the values behind:

Compound	Ki (human EP2 receptor) [M]	Ki (human EP4 receptor) [M]	Ki (human EP3 receptor) [M]	EC50 [1] [nM]	activity (EP2 part) [1]
O=C(O)/C=C/c1cccc(NC(=O)c2ccc(-c3ccc(Cl)cc3)o2)c1 [Compound 146, 3-(3-{[5-(4-Chloro-phenyl)-furan-2-carbonyl]-amino}-phenyl)-acrylic acid]	< 1e-07	> 1e-05	> 1e-05	< 100	EP2 Agonist
O=C(O)CCc1cccc(NC(=O)c2ccc(-c3ccc(Cl)cc3)o2)c1 [Compound 147, 3-(3-{[5-(4-Chloro-phenyl)-furan-2-carbonyl]-amino}-phenyl)-propionic acid]	< 1e-07	> 1e-05	> 1e-05	< 100	EP2 Agonist
O=C(O)CCc1cccc(NC(=O)c2ccc(-c3ccc(F)cc3)o2)c1 [Compound 148, 3-(3-{[5-(4-Fluoro-phenyl)-furan-2-carbonyl]-amino}-phenyl)-propionic acid]	< 1e-07	> 1e-05	> 1e-05	< 100	EP2 Agonist
O=C(O)Cc1cccc(NC(=O)c2cccc(-c3ccc(Cl)cc3)n2)c1 [Compound 150, (3-{[6-(4-Chloro-phenyl)-pyridine-2-carbonyl]-amino}-phenyl)-acetic acid]	< 1e-06	> 1e-05	> 1e-05	< 1000	EP2 Agonist
O=C(O)/C=C/c1cccc(NC(=O)c2cccc(-c3ccc(Cl)cc3)n2)c1 [Compound 151, 3-(3-{[6-(4-Chloro-phenyl)-pyridine-2-carbonyl]-amino}-phenyl)-acrylic acid]	< 1e-07	> 1e-05	> 1e-05	< 100	EP2 Agonist
O=C(O)Cc1cccc(NC(=O)c2cccc(-c3ccc(F)cc3)n2)c1 [Compound 153, (3-{[6-(4-Fluoro-phenyl)-pyridine-2-carbonyl]-amino}-phenyl)-acetic acid]	< 1e-07	> 1e-05	> 1e-05	< 100	EP2 Agonist
O=C(O)COc1cccc(NC(=O)c2cccc(-c3ccc(Cl)cc3)n2)c1 [Compound 154, (3-{[6-(4-Chloro-phenyl)-pyridine-2-carbonyl]-amino}-phenoxy)-acetic acid]	< 1e-07	> 1e-05	> 1e-05	< 100	EP2 Agonist
O=C(O)/C=C/c1cccc(NC(=O)c2cccc(-c3ccc(F)cc3)n2)c1 [Compound 155, 3-(3-{[6-(4-Fluoro-phenyl)-pyridine-2-carbonyl]-amino}-phenyl)-acrylic acid]	< 1e-07	> 1e-05	> 1e-05	< 100	EP2 Agonist
O=C(O)COc1cccc(NC(=O)c2ccc(-c3ccc(Cl)cc3)o2)c1 [Compound 156, (3-{[5-(4-Chloro-phenyl)-furan-2-carbonyl]-amino}-phenoxy)-acetic acid]	< 1e-07	> 1e-05	> 1e-05	< 100	EP2 Agonist
O=C(O)COc1cccc(NC(=O)c2ccc(-c3ccc(F)cc3)o2)c1 [Compound 157, (3-{[5-(4-Fluoro-phenyl)-furan-2-carbonyl]-amino}-phenoxy)-acetic acid]	< 1e-07	> 1e-05	> 1e-05	< 100	EP2 Agonist
O=C(O)COc1cccc(NC(=O)c2cccc(-c3ccc(F)cc3)n2)c1 [Compound 158, (3-{[6-(4-Fluoro-phenyl)-pyridine-2-carbonyl]-amino}-phenoxy)-acetic acid]	< 1e-07	< 1e-06	> 1e-05	< 100	EP2 Agonist
O=C(O)CCc1cccc(NC(=O)c2cccc(-c3ccc(F)cc3)n2)c1 [Compound 159, 3-(3-{[6-(4-Fluoro-phenyl)-pyridine-2-carbonyl]amino}-phenyl)-propionic acid]	< 1e-07	> 1e-05	> 1e-05	< 100	EP2 Agonist
O=C(O)COc1cccc(NC(=O)c2ccc(-c3ccccc3)o2)c1 [Compound 160, {3-[(5-Phenyl-furan-2-carbonyl)-amino]-phenoxy}-acetic acid]	< 1e-07	> 1e-05	> 1e-05	< 100	EP2 Agonist
